# Experimental data: patent US7662842B2, “Thiazolidinone amides, thiazolidine carboxylic acid amides, and serine amides, including polyamine conjugates thereof, as selective anti-cancer agents” (Ohio State Univesity Research Foundation, priority 2003, dated 2010)
# Where a name gives a salt, the structure may show the parent alone. Read-outs that look alike come from different tables or passages of the source.
# Key:
# [1] = system: DU-145 human prostate cancer cells; assay: SRB cytotoxicity assay, DU-145; assay type: cell-based
# Experimental: (§1) For in vitro cytotoxicity screening, 1000 to 5000 cells were plated into each well of 96-well plates depending on growth rate, and exposed to different concentrations of a test compound for 96 h in three to five replicates. All the compounds were dissolved in dimethyl sulfoxide at 5 to 20 mM, and diluted to desired concentrations in complete culture medium. Cell numbers at the end of the drug treatment were measured by the SRB assay (Gududuru et al., “Synthesis and Biological Evaluation of Novel Cytotoxic Phospholipids for Prostate Cancer,” Bioorg. Med. Chem. Lett. 14:4919-4923 (2004); Rubinstein et al., “Comparison of in vitro Anticancer-Drug-Screening Data Generated with a Tetrazolium Assay Versus a Protein Assay Against a Diverse Panel of Human Tumor Cell Lines,” J. Natl. Cancer Inst. 82:1113-1118 (1990), each of which is hereby incorporated by reference in its entirety). Briefly, the cells were fixed with 10% of trichloroacetic acid, stained with 0.4% SRB, and the absorbances at 540 nm was measured using a plate reader (DYNEX Technologies, Chantilly, Va.). […] A sandwich ELISA (Roche, Mannheim, Germany) utilizing monoclonal antibodies specific for DNA and histones was used to quantify degree of apoptosis induced by the analogs after 72 h exposure. This assay measures DNA-histone complexes (mono- and oligonucleosomes) released into cytoplasm from the nucleus during apoptosis.
# [2] = system: PC-3 human prostate cancer cells; assay: SRB cytotoxicity assay, PC-3; assay type: cell-based; conditions: 96 h exposure, prostate cancer cell line
# Experimental: as §1
# [3] = system: human breast cancer cell line (MCF-7); assay: SRB cytotoxicity assay, MCF-7; assay type: cell-based
# Experimental: as §1
# In vitro cytotoxicity assay was performed by the same sulforhodamine B (SRB) assay (described above). The compounds shown in Table 8 below where tested for activity against the breast cancer and ovarian cancer cell lines.
# RH7777 and CV-1 cells were used as negative controls and MCF-7 cell line (breast cancer) was included to examine the selectivity.
# [4] = system: LNCaP human prostate cancer cells; assay: SRB cytotoxicity assay, LNCaP; assay type: cell-based; conditions: 96 h exposure, prostate cancer cell line
# Experimental: as §1
# [5] = system: RH7777 rat hepatoma cells; assay: SRB cytotoxicity assay, RH7777 control cell line; assay type: cell-based; conditions: SRB assay, 96 h exposure, control cell line
# Experimental: as §1
# [6] = system: PPC-1 human prostate cancer cells; assay: SRB cytotoxicity assay, PPC-1; assay type: cell-based; conditions: prostate cancer cell line
# Experimental: (§2) Dr. Mitchell Steiner at University of Tennessee Health Science Center, kindly provided PPC-1 and TSU-Pr1 cells.
# as §1
# [7] = system: TSU-Pr1 human prostate cancer cells; assay: SRB cytotoxicity assay, TSU-Pr1; assay type: cell-based; conditions: prostate cancer cell line
# Experimental: as §2, §1
# CV-1 cells = assay: SRB cytotoxicity assay, CV-1 control cell line; assay type: cell-based
# Experimental: For in vitro cytotoxicity screening, 1000 to 5000 cells were plated into each well of 96-well plates depending on growth rate, and exposed to different concentrations of a test compound for 96 h in three to five replicates. All the compounds were dissolved in dimethyl sulfoxide at 5 to 20 mM, and diluted to desired concentrations in complete culture medium. Cell numbers at the end of the drug treatment were measured by the SRB assay (Gududuru et al., “Synthesis and Biological Evaluation of Novel Cytotoxic Phospholipids for Prostate Cancer,” Bioorg. Med. Chem. Lett. 14:4919-4923 (2004); Rubinstein et al., “Comparison of in vitro Anticancer-Drug-Screening Data Generated with a Tetrazolium Assay Versus a Protein Assay Against a Diverse Panel of Human Tumor Cell Lines,” J. Natl. Cancer Inst. 82:1113-1118 (1990), each of which is hereby incorporated by reference in its entirety). Briefly, the cells were fixed with 10% of trichloroacetic acid, stained with 0.4% SRB, and the absorbances at 540 nm was measured using a plate reader (DYNEX Technologies, Chantilly, Va.). […] A sandwich ELISA (Roche, Mannheim, Germany) utilizing monoclonal antibodies specific for DNA and histones was used to quantify degree of apoptosis induced by the analogs after 72 h exposure. This assay measures DNA-histone complexes (mono- and oligonucleosomes) released into cytoplasm from the nucleus during apoptosis. RH7777 cells were employed because of nonspecific cytotoxicity of compound 4 in receptor-negative cells as well as receptor-positive prostate cancer cells.
# RH7777 and CV-1 cells were used as negative controls and MCF-7 cell line (breast cancer) was included to examine the selectivity. 5-Fluorouracil was used as reference drug.
# WM-164 cells = assay: Sulforhodamine B assay in melanoma cells, WM-164; assay type: cell-based; conditions: SRB assay, 48 h incubation, melanoma cell line
# Experimental: (§3) SKMEL-188 cells were cultured in Ham's F10 medium (Gibco Invitrogen, Inc., Grand Island, N.Y.) plus 5% fetal bovine serum (Cellgro Mediatech, Inc., Herndon, Va.) and 1% antibiotic/antimycotic mixture (Sigma-Aldrich, Inc., St. Louis, Mo.). WM-164 cells (gift of Dr. Meenhard Herlyn, Wistar Inst., Philadelphia, Pa.) and human dermal fibroblasts (Cascade Biologics, Inc., Portland, Oreg.) were cultured in DMEM medium (Cellgro Mediatech, Inc.) supplemented with 5% fetal bovine serum, 1% antibiotic.antimycotic mixture and bovine insulin ([…], Sigma-Aldrich, Inc.). Human dermal fibroblasts were used as a control to examine the effects of compounds on stromal environment. Thus, the effect of the various compounds on melanoma cells versus fibroblasts would document their potential selectivity.
# (§4) Sulforhodamine B Assay: Cells were seeded into 96-well plates at 5000 cells/well. After 12 hours, media were changed and serial dilutions of compounds were added. Cells were incubated with each compound for 48 hours. Fresh media containing the test compound were changed ever 24 hours. Thereafter, total cell protein corresponding to cell numbers (both viable and non-viable cells) were measured using the sulforhodamine B (SRB) assay according to manufacturer's protocol (Sigma-Aldrich, Inc.) (Rubinstein et al., “Comparison of in vitro Anticancer Drug-screening Data Generated with a Tetrazolium Assay Versus a Protein Assay Against a Diverse Panel of Human Tumor Cell Lines,” J. Natl. Cancer Inst. 82:1113-1118 (1990); Dothager et al., “Synthesis and Identification of Small Molecules that Potently Induce Apoptosis in Melanoma Cells Through GI Cell Cycle Arrest,” J. Am. Chem. Soc. 127:8686-8696 (2005), each of which is hereby incorporated by reference in its entirety). Briefly, cells were fixed with trichloracetic acid, washed and incubated with sulforhodamine B for 30 minutes. After another wash, dye incorporated into the cells was solubilized and measured using a plate reader at 565 nm.
# (§5) Statistical Analysis: Data is presented as mean±SEM (n=6-8). […] Statistical analyses were performed with Student's t-test (*p<0.05; **p<0.005).
# (§6) DTIC and Taxol were assayed in the same way for comparison and served as internal quality controls in the different batches of assay. For comparison, the activities of 5R and 5S were measured.
# SKMEL-188 melanoma cells = assay: Sulforhodamine B assay in melanoma cells, SKMEL-188; assay type: cell-based; conditions: SRB assay, 48 h incubation, melanoma cell line
# Experimental: as §3, §4, §5, §6
# human dermal fibroblasts = assay: Sulforhodamine B assay, fibroblast control cells; assay type: cell-based; conditions: SRB assay, 48 h incubation
# Experimental: as §3, §4, §5, §6
# [8] = read-out: IC50 DU-145, 96 h exposure, prostate cancer cell line
# [9] = Homo sapiens, WM164, read-out: IC50 WM-164
# [10] = Homo sapiens, PPC-1, 96 h exposure
smiles,measurement,setting,value
NCCCNCCCCNCCCNC(=O)CN1C(=O)CSC1c1ccccc1 (stereo not drawn) [Compound 220],IC50,[1]; [8],5.3 µM
same,IC50,[2],7 µM
same,IC50,[3]; SRB assay,> 100 µM
same,IC50,[4],12.2 µM
same,IC50,[5],68.4 µM
same,IC50,[6]; 96 h exposure,5.7 µM
same,IC50,[7]; 96 h exposure,3200 nM
same,IC50,CV-1 cells,34 µM
"CCCCCCCCCCCCCCCCCCNC(=O)[C@@H]1CSC(c2ccc(F)cc2)N1 (mixture of isomers) [Compound 19, (2RS, 4R)-2-(4-Fluoro-phenyl)-thiazolidine-4-carboxylic acid octadecylamide]",IC50,[2]; Homo sapiens,6.8 µM
"CCCCCCCCCCCCCCCCCCNC(=O)[C@@H]1CSC(c2ccc(NC(C)=O)cc2)N1.Cl (mixture of isomers) [Compound 18, (2RS, 4R)-2-(4-Acetylamino-phenyl)-thiazolidine-4-carboxylic acid octadecylamide Hydrochloride]",IC50,WM-164 cells; [9],5.5 µM
same,melting point,,170 °C
same,IC50,"SKMEL-188 melanoma cells; SK-MEL-188, 48 h",2.7 µM
same,IC50,"human dermal fibroblasts; Homo sapiens, Fibroblast, 48 h",> 10 µM
CCCCCCCCCCCCCCCCCCNC[C@@H](CO)NC [drawing 31],IC50,WM-164 cells; [9],3.6 µM
same,IC50,"SKMEL-188 melanoma cells; SK-MEL-188, 48 h",3.2 µM
same,IC50,"human dermal fibroblasts; Homo sapiens, Fibroblast, 48 h",1.6 µM
NCCCNCCCCNCCCNC(=O)C(N)CO (stereo not drawn) [Compound 216],IC50,[1]; [8],4.6 µM
same,IC50,[2],4.8 µM
same,IC50,[3]; SRB assay,> 100 µM
same,IC50,[4],8 µM
same,IC50,[5],58.2 µM
same,IC50,[6]; 96 h exposure,4 µM
same,IC50,[7]; 96 h exposure,2500 nM
same,IC50,CV-1 cells,37.1 µM
"CCCCCCCCCCCCCCCCCCNC(=O)[C@@H]1CSC(c2c(Cl)cccc2Cl)N1 (mixture of isomers) [Compound 24, (2RS, 4R)-2-(2,6-Dichloro-phenyl)-thiazolidine-4-carboxylic acid octadecylamide]",melting point,,49 °C
COc1cc(C2NC(C(=O)NCCCNCCCCNCCCN)CS2)cc(OC)c1OC (mixture of isomers) [Compound 224],IC50,[1]; [8],5.1 µM
same,IC50,[2],5.9 µM
same,IC50,[3]; SRB assay,> 100 µM
same,IC50,[4],10.9 µM
same,IC50,[5],71.9 µM
same,IC50,[6]; 96 h exposure,5 µM
same,IC50,[7]; 96 h exposure,3000 nM
same,IC50,CV-1 cells,30.5 µM
"CCCCCCCCCCCCCCCCCCNC(=O)[C@@H]1CSC(c2ccc([N+](=O)[O-])cc2)N1 (mixture of isomers) [Compound 21, (2RS, 4R)-2-(4-Nitro-phenyl)-thiazolidine-4-carboxylic acid octadecylamide]",IC50,"[3]; Homo sapiens, MCF7, SRB assay",15.3 µM
"CCCCCCCCCCCCCCCCCCNC(=O)[C@@H]1CSC(CCCCCCCCCCCC)N1 (mixture of isomers) [Compound 7, (2RS, 4R)-2-Dodecylthiazolidine-4-carboxylic acid octadecylamide]",melting point,,86 °C
"CCCCCCCCCCCCCCCCCCNC(=O)[C@@H]1CSC(C2CCCCC2)N1 (mixture of isomers) [Compound 8, (2RS, 4R)-2-Cyclohexylthiazolidine-4-carboxylic acid octadecylamide]",IC50,WM-164 cells; [9],> 50 µM
"CCCCCCCCCCCCCCCCCCNC(=O)[C@@H]1CSC(c2ccc(C#N)cc2)N1 (mixture of isomers) [Compound 22, (2RS, 4R)-2-(4-Cyano-phenyl)-thiazolidine-4-carboxylic acid octadecylamide]",IC50,"[1]; Homo sapiens, DU-145, read-out: IC50 DU-145, 96 h exposure, prostate cancer cell line",> 20 µM
same,IC50,"[4]; Homo sapiens, LNCaP",5.9 µM
same,IC50,"[5]; Rattus norvegicus, RH7777",> 20 µM
same,IC50,[6]; [10],5 µM
same,IC50,"[7]; Homo sapiens, TSU-Pr1, 96 h exposure",> 20000 nM
same,melting point,,90 °C
CCCCCCCCCCCCCCOCCCNCCCNC(=O)[C@@H](CO)NC(=O)OC(C)(C)C,IC50,WM-164 cells; [9],3.3 µM
same,IC50,"SKMEL-188 melanoma cells; SK-MEL-188, 48 h",3.8 µM
same,IC50,"human dermal fibroblasts; Homo sapiens, Fibroblast, 48 h",3.4 µM
"CCCCCCCCCCCCCCCCCCNC(=O)C1CSC(c2ccoc2)N1 (stereo not drawn) (as salt: hydrochloride) [Compound 12, 2-(furan-3-yl)-N-octadecylthiazolidine-4-carboxamide]",melting point,,99 °C
"CCCCCCCCCCCCCCCCCCNC(=O)[C@@H]1CSC(c2ccc(-c3ccccc3)cc2)N1.Cl (mixture of isomers) [Compound 27, (2RS, 4R)-2-Biphenyl-4-yl-thiazolidine-4-carboxylic acid octadecylamide Hydrochloride]",melting point,,130 °C
CCCCCCCCCCCCCCCCCCNC[C@@H](CO)NC [drawing 32],IC50,WM-164 cells; read-out: IC50 WM-164,3.6 µM
same,IC50,SKMEL-188 melanoma cells,3.1 µM
same,IC50,human dermal fibroblasts,2.3 µM
"CCCCCCCCCCCCCCCCCCNC(=O)[C@@H]1CSC(c2c[nH]c3ccccc23)N1 (mixture of isomers) [Compound 10, (2RS, 4R)-2-(1H-Indol-3yl)-thiazolidine-4-carboxylic acid octadecylamide]",IC50,"[3]; Homo sapiens, MCF7, SRB assay",10.6 µM
"CCCCCCCCCCCCCCCCCCNC(=O)[C@@H]1CSC(c2ccc(OC)cc2)N1.Cl (mixture of isomers) [Compound 15, (2RS, 4R)-2-(4-Methoxy-phenyl)-thiazolidine-4-carboxylic acid octadecylamide Hydrochloride]",IC50,WM-164 cells; [9],13.1 µM
same,melting point,,95 °C
same,IC50,"SKMEL-188 melanoma cells; SK-MEL-188, 48 h",9.7 µM
same,IC50,"human dermal fibroblasts; Homo sapiens, Fibroblast, 48 h",28 µM
"CCCCCCCCCCCCCCCCCCNC(=O)[C@@H]1CSC(c2cc(OC)c(OC)c(OC)c2)N1.Cl (mixture of isomers) [Compound 17, (2RS, 4R)-2-(3,4,5-Trimethoxy-phenyl)-thiazolidine-4-carboxylic acid octadecylamide Hydrochloride]",IC50,[6]; [10],0.48 µM
same,IC50,WM-164 cells; [9],1.5 µM
same,melting point,,115 °C
same,IC50,"SKMEL-188 melanoma cells; SK-MEL-188, 48 h",1.8 µM
same,IC50,"human dermal fibroblasts; Homo sapiens, Fibroblast, 48 h",5.2 µM
